Assay [1] concerns Human Umbilical Vein Endothelial Cells (HUVECs). Put plainly: Inhibition against sandwich tube formation by vascular endothelial cells in response to stimulation by VEGF. In kind it is cell-based. To be noted: HUVEC in collagen gel sandwich, stimulation by VEGF (25 ng/ml VEGF and 10 ng/ml EGF), 4th day, total tube length, read-out: IC50 (concentration required for 50% inhibition of tube formation). An outline of the steps: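 HUVECs were sandwiched between collagen gel layers in serum-free medium with 25 ng/ml VEGF plus 10 ng/ml EGF, with test substance added above the gel at 37 °C. On day 4 tubes were MTT-stained and total tube length measured by image analysis. IC50 is the concentration halving tube length relative to no-compound wells.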

The target in the next assay is T1, VEGFR2 (Homo sapiens, UniProt P35968).
T1 construct: coding for the cytoplasmic domain, beginning with lysine 791 and including the termination codon; made in house; host or cells: Sf9 insect cells (baculovirus, pFastBacHis)
The experiment in a line: Inhibition against VEGFR2 kinase (receptor tyrosine kinase activity, HTRF method). Type of assay: biochemical. The following applies: His6-VEGFR2 cytoplasmic domain, biotin-poly(GT) substrate, ATP, 30° C. 10 minutes, read-out: IC50 (concentration required for 50% inhibition of VEGFR2 kinase activity). The gist of the method:
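Construct: His6-tagged VEGFR2 cytoplasmic domain (from Lys791), expressed in Sf9 cells. Kinase step: biotin-poly(Glu4:Tyr1) substrate, ATP added as 10 μl of 4 μM, Hepes pH 7.4 with Mg2+/Mn2+, 30 °C for 10 min, EDTA stop. Phosphotyrosine product measured by HTRF.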
On the technique in general: In TR-FRET formats the signal depends on donor and acceptor labels being close together.

T1 sequence (P35968 786-1356 limits assumed): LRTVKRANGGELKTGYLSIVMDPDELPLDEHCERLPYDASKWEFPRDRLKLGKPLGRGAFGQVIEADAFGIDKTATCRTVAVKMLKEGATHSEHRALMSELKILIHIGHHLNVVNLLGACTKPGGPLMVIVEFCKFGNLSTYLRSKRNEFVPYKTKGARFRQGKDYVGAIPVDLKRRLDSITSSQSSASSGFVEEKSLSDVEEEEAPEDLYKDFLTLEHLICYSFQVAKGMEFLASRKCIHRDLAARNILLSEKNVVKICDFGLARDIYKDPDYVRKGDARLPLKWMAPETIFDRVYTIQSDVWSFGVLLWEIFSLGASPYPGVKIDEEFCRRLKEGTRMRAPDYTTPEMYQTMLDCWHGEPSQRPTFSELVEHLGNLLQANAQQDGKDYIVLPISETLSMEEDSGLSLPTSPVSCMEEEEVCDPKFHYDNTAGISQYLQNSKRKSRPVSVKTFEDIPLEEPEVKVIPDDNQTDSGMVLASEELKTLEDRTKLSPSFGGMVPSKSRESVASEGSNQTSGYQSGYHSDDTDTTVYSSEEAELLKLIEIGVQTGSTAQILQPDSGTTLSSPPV

`N#CCCCOc1cc2nccc(Oc3ccc(NC(=O)Nc4ccc(F)cc4F)c(F)c3)c2cc1C#N` [Example 55, N-(4-(6-Cyano-7-(3-cyanopropoxy)-4-quinolyl)oxy-2-fluorophenyl)-N′-(2,4-difluorophenyl)urea]: the IC50 turned out to be 35 nM in assay [1] and 29 nM at VEGFR2.

`COCCOc1cc2nccc(Oc3ccc(NC(=O)Nc4ccc(F)cc4)c(F)c3)c2cc1C#N` [Example 100, N-(4-(6-Cyano-7-(2-methoxyethoxy)-4-quinolyl)oxy-2-fluorophenyl)-N′-(4-fluorophenyl)urea]: the figures for the IC50 (in assay [1]; at VEGFR2) were 6.3 nM and 9.6 nM, respectively.

As for `CCNC(=O)n1ccc2cc(Oc3ccnc4cc(OC)c(C(N)=O)cc34)ccc21` [Example 316, 6-Carbamoyl-4-(1-ethylcarbamoyl-1H-indol-5-yloxy)-7-methoxyquinoline], the IC50 in assay [1] was 1 nM; on VEGFR2, 6.4 nM.

As to `NC(=O)c1cc2c(Oc3ccc(NC(=O)NC4CC4)c(F)c3)ccnc2cc1OCCCN1CCOCC1` [Example 374, 4-(4-(Cyclopropylaminocarbonyl)amino-3-fluorophenoxy)-7-(3-(4-morpholino)propoxy)-6-quinolinecarboxamide], the IC50 in assay [1] came to 3 nM; on VEGFR2, 8.4 nM.

`COc1cc2nccc(Oc3ccc(NC(=O)NC4CC4)c(Cl)c3)c2cc1C(=O)NCCS(C)(=O)=O` [Example 404, N6-(2-(Methylsulfonyl)ethyl)-4-(3-chloro-4-(((cyclopropylamino)carbonyl)amino)phenoxy)-7-methoxy-6-quinolinecarboxamide]: the results for the IC50 (in assay [1]; at VEGFR2) were 2.8 nM and 6.5 nM, respectively.

The values are drawn from patent US7253286B2, “Nitrogen-containing aromatic derivatives” (Eisai Co., Ltd, priority 2000, dated 2007).
